Assay results taken from patent publication US20220183287A1, “METHODS FOR KILLING PESTS” (The United States of America, as represented by the …, priority 2020, published 2022).
Values joined by “and” are separate entries in the source; they are usually repeats but may differ in a detail not shown here. Identical values can stand only once. Marks after values point to notes of the source that are not given here.

Tested on: Heterodera glycines eggs
Assay: Microwell assay: eggs immersed in compounds, hatch and activity of hatched J2
Type: in vivo
Conditions: 0.1%; Day 2
Procedure: (§1) All chemicals were used without further purification.
(§2) These are reported as 0.1% herein.
(§3) The nematodes were then incubated at 26° C. […] Two trials were conducted for each assay.
(§4) The assumptions of the model were checked.

SMILES | hatch suppression compared to the Tween control [%]
CCCOC(=O)c1ccccc1 [nPrB, n-Propyl benzoate] | 60

Same assay, conditions: 0.1%; Day 7

SMILES | % active J2 suppression compared with the Tween control [%]
COC(=O)c1ccccc1[N+](=O)[O-] [M2NB, Methyl 2-nitrobenzoate] | 53

Same assay, conditions: 0.1%; J2 hatched from immersed eggs

SMILES | % Active Day 2 | % Active Day 5 | % Active Day 7
COC(=O)c1ccccc1[N+](=O)[O-] [M2NB, Methyl 2-nitrobenzoate] | 35.8 ^c % | 28.6 ^bcd % | 25.3 ^bc %
CCCCCOC(=O)c1ccccc1 [nPeB, n-Pentyl benzoate] | 4.2 ^d % | 4.3 ^e % | 4.2 ^c %
CCCOC(=O)c1ccccc1 [nPrB, n-Propyl benzoate] | 2.2 ^d % | 0 ^f % | 0 ^d %

Same assay, conditions: 0.1%; by Day 7

SMILES | inactive J2 that hatched from the eggs [%]
CCCOC(=O)c1ccccc1 [nPrB, n-Propyl benzoate] | 100

Same assay, conditions: 0.1%; hatched J2 per well, about 35 eggs per well

SMILES | Hatch Day 2 | Hatch Day 5 | Hatch Day 7
COC(=O)c1ccccc1[N+](=O)[O-] [M2NB, Methyl 2-nitrobenzoate] | 9.1 ^abc | 10.2 ^bc | 10.0 ^bc
CCCCCOC(=O)c1ccccc1 [nPeB, n-Pentyl benzoate] | 7.6 ^bcd | 7.7 ^bcd | 7.5 ^bcd
CCCOC(=O)c1ccccc1 [nPrB, n-Propyl benzoate] | 5.8 ^cd | 5.8 ^cd | 5.6 ^cd

Same assay, conditions: Heterodera glycines, 168 h; 0.1%; Day 7; read-out: egg hatch suppression compared with the Tween control

SMILES | pest or weed control at 0.1 % [%]
CCCOC(=O)c1ccccc1 [nPrB, n-Propyl benzoate] | 64 to 80

Tested on: M. incognita second-stage juveniles
Assay: Microwell assay: previously hatched J2 immersed in compounds, activity and viability
Conditions: 0.1%; previously hatched J2 in aqueous solution
Procedure: Nematode cultures: As described in Meyer et al. (Meyer, S. L. F., et al., Nematropica, 46: 85-96 (2016)), M. incognita race 1 (originally isolated in Maryland) was maintained in a greenhouse (24° to 29° C.; natural and supplemental lighting combined for a 16-h daylength) on susceptible cayenne pepper (Capsicum annuum) TA-136′ plants. All greenhouse experiments described herein were conducted under the same conditions. Two to three months after pepper plant inoculation, egg masses were picked from roots. Eggs were separated by 5 min immersion in 0.6% sodium hypochlorite, followed by a rinse in sterile distilled water (SDW). To collect second-stage juveniles (J2) for microwell assays, the surface-sterilized eggs were placed in a hatching chamber (Spectra/Mesh Nylon Filter, openings 25-μm-diam.; Spectrum Laboratories Inc., Rancho Dominguez, Calif.) set in an autoclaved dish that was placed on a rotary shaker for 3 days at 35 rpm. For some M. incognita and H. glycines assays, 25 or […] kanamycin monosulfate (Phytotechnology Laboratories, Shawnee Mission, Kans.) was added to the hatching chamber to prevent growth of bacteria. The collected J2 were then rinsed with water to remove the kanamycin monosulfate.
(§5) Compounds for the studies were purchased from three different companies: methyl benzoate, CAS Number 93-58-3, ≥99% purity; Tween 20, CAS Number: 9005-64-5; Tween 80, CAS Number: 9005-65-6; ethyl benzoate, CAS Number: 93-89-0, natural, ≥99% purity, FCC, FG; vinyl benzoate, CAS Number: 769-78-8, ≥99% purity; n-propyl benzoate, CAS Number: 2315-68-6, 99% purity; n-butyl benzoate, CAS Number: 136-60-7, 99% purity; benzyl benzoate, CAS Number: 120-51-4, natural, ≥99% purity, FCC, FG; methyl 2-methylbenzoate, CAS Number: 89-71-4, 99% purity; methyl 2-chlorobenzoate, CAS Number: 610-96-8, ≥98% purity; methyl 2-methoxybenzoate, CAS Number: 606-45-1, 99% purity and methyl 2-nitrobenzoate, CAS Number: 606-27-9, 98% purity were purchased from Sigma-Aldrich (St. Louis, Mo.). Compounds, iso-butyl benzoate, CAS Number 120-50-3, >98% purity; n-pentyl benzoate, CAS Number: 2049-96-9, ≥98% purity; and n-hexyl benzoate, CAS Number: 6789-88-4, ≥98% purity were purchased from Alfa Aesar (Tewksbury, Mass.). The compounds methyl 3-methoxybenzoate (methyl m-anisate), CAS Number: 5368-81-0; 97% and methyl 3-methylbenzoate (methyl m-toluate), CAS Number: 99-36-5, 97% purity were purchased from TCI America (Portland, Oreg.). All chemicals were used without further purification. Deionized water (DI) containing 1% emulsifier (v/v), Tween 20 and Tween 80, at 1:1 ratio was used to make different VOCs (volatile organic compounds) water solutions and also used as blank control.
(§6) For tests with individual compounds, the concentration of each compound was 0.1% before placement into wells; the final concentration in the wells was 0.095% after addition to eggs or J2 suspended in water. These are reported as 0.1% herein. An exception was Trial 2, M. incognita J2 activity and viability (Table 2): the final concentration was 0.1% after placement in wells. Low concentrations were selected for assays of combined compounds to determine if the combinations would increase nematotoxicity.
(§7) Laboratory assays were conducted in 96-well polystyrene plates following general procedures described in Wen et al. (2019). Each well received approximately 35 J2 (for previously hatched J2 assays) or 35 eggs that each contained either a first-stage juvenile (J1) or a J2. The plates were covered with plastic adhesive sealing film (Excel Scientific, Inc., Victorville Calif.) and then with the plate lids. Parafilm (Bemis, Neenah, Wis.) was used to seal the plates. The nematodes were then incubated at 26° C. […] Following the counts on Day 2, the treatments were removed and the J2 rinsed twice with SDW and incubated in the second rinse. […] Two trials were conducted for each assay.

SMILES | % Active Day 1 | % Active Day 2
COC(=O)c1ccccc1[N+](=O)[O-] [M2NB, Methyl 2-nitrobenzoate] | 0 ^f % | 0 ^d %
CCCCCOC(=O)c1ccccc1 [nPeB, n-Pentyl benzoate] | 29.9 ^bc % | 22.9 ^b %
CCCOC(=O)c1ccccc1 [nPrB, n-Propyl benzoate] | 0 ^f % | 0 ^d %

Same assay, conditions: Meloidogyne incognita, 72 h, read-out: % Viable Day 3 rinsed

SMILES | viability at 0.1 % [%]
COC(=O)c1ccccc1[N+](=O)[O-] [M2NB, Methyl 2-nitrobenzoate] | 0
CCCCCOC(=O)c1ccccc1 [nPeB, n-Pentyl benzoate] | 16.5
CCCOC(=O)c1ccccc1 [nPrB, n-Propyl benzoate] | 0

Same assay, conditions: Meloidogyne incognita, 72 h, read-out: nonviable (killed) J2

SMILES | mortality at 0.1 % [%]
COC(=O)c1ccccc1[N+](=O)[O-] [M2NB, Methyl 2-nitrobenzoate] | 100
CCCOC(=O)c1ccccc1 [nPrB, n-Propyl benzoate] | 100

Same assay, conditions: in vivo

SMILES | nonviable (killed) J2
CCCCCOC(=O)c1ccccc1 [nPeB, n-Pentyl benzoate] | killed most of the J2

Tested on: H. glycines second-stage juveniles
Assay: as above
Conditions: 0.1%; Day 3 following water rinse
Procedure: The isolate of H. glycines race 3, originally isolated in Maryland, was maintained on soybean (Glycine max cv. ‘Essex’). As previously described (Wen, Y., et al. Plant Disease, 103: 2191-2198 (2019)), the roots were gently rubbed in water to dislodge cysts and mature females. The egg suspensions were then poured through nested sieves (#20 over /#60; pore sizes 850 μm and 250 μm diam., respectively) into a 454 g/liter sucrose solution. After 15 min, the cysts and females and cysts that floated to the top were collected, rinsed in water, and crushed with a rubber stopper on a #60 sieve (250-μm diam. pore size) that was partially submerged in distilled water. The egg suspension was washed through nested #230 over #500 sieves (pore sizes 63 μm and 25-μm diam., respectively). The eggs were collected in distilled water, and J2 hatched as described above.
as §5, §6, §7
Statistical analyses: The data were analyzed as either a general linear model using JMP or a generalized linear model for the best distribution to fit the residual using Proc Glimmix (Sas Institute). The assumptions of the model were checked. If not met, then appropriate statistical techniques were used so that data could met the assumptions of the models. In Sas, mean comparisons were done with Sidak adjusted p-values to hold the experiment-wise error at 0.05.

SMILES | reduction in % viable J2 compared with the Tween control [%]
COC(=O)c1ccccc1[N+](=O)[O-] [M2NB, Methyl 2-nitrobenzoate] | 51

Same assay, conditions: 0.1%; previously hatched J2 in aqueous solution

SMILES | % Active Day 1 | % Active Day 2
COC(=O)c1ccccc1[N+](=O)[O-] [M2NB, Methyl 2-nitrobenzoate] | 54.2 ^c % | 34.1 ^de %
CCCCCOC(=O)c1ccccc1 [nPeB, n-Pentyl benzoate] | 54.0 ^c % | 29.1 ^de %
CCCOC(=O)c1ccccc1 [nPrB, n-Propyl benzoate] | 17.2 ^d % | 10.8 ^fg %

Same assay, conditions: Heterodera glycines, 72 h, read-out: % Viable Day 3 rinsed

SMILES | viability at 0.1 % [%]
COC(=O)c1ccccc1[N+](=O)[O-] [M2NB, Methyl 2-nitrobenzoate] | 30
CCCCCOC(=O)c1ccccc1 [nPeB, n-Pentyl benzoate] | 28.4
CCCOC(=O)c1ccccc1 [nPrB, n-Propyl benzoate] | 12.1

Tested on: M. incognita eggs
Assay: Microwell assay: eggs immersed in compounds, hatch and activity of hatched J2
Type: in vivo, Meloidogyne incognita
Conditions: 0.1%; Day 7
Procedure: as §1, §2, §3, §4

SMILES | decrease in total hatch compared with the Tween control
COC(=O)c1ccccc1[N+](=O)[O-] [M2NB, Methyl 2-nitrobenzoate] | about 58%

Same assay, conditions: 0.1%; J2 hatched from immersed eggs

SMILES | % Active Day 2 | % Active Day 5 | % Active Day 7
COC(=O)c1ccccc1[N+](=O)[O-] [M2NB, Methyl 2-nitrobenzoate] | 29.5 ^b % | 15.2 ^d % | 18.7 ^b %
CCCCCOC(=O)c1ccccc1 [nPeB, n-Pentyl benzoate] | 31.5 ^b % | 0 ^e % | 0% and 0 ^c %
CCCOC(=O)c1ccccc1 [nPrB, n-Propyl benzoate] | 0 ^c % | 0 ^e % | 0 ^c %

Same assay, conditions: 0.1%; hatched J2 per well, about 35 eggs per well

SMILES | Hatch Day 2 | Hatch Day 5 | Hatch Day 7
COC(=O)c1ccccc1[N+](=O)[O-] [M2NB, Methyl 2-nitrobenzoate] | 5.0 ^bcd | 12.1 ^b | 19.5 ^b
CCCCCOC(=O)c1ccccc1 [nPeB, n-Pentyl benzoate] | 4.9 ^bcd | – | 6.6 ^cde
CCCOC(=O)c1ccccc1 [nPrB, n-Propyl benzoate] | 3.5 ^cd | 4.0 ^cde | 4.1 ^de
